Measured values: publication PMC11856857, “Protease-Resistant, Broad-Spectrum Antimicrobial Peptides with High Antibacterial and Antifungal Activity” (Life, 2025)
Converted amounts (≈) assume the structure as drawn. “Also recorded” adds a separate entry of the source. Read-outs that look alike come from different tables or passages of the source. Where a SMILES comes first, the peptide text is derived from it. Where no end group is shown, it is not given here.

Assays:
C. albicans ATCC 10231 = type: cell-based, Candida albicans
P. aeruginosa ATCC 27853 = type: cell-based, Pseudomonas aeruginosa
E. coli ATCC 25922 = type: cell-based, Escherichia coli
S. aureus ATCC 29213 [1] = type: cell-based, Staphylococcus aureus
human erythrocytes = type: cell-based; conditions: pH 7.2
Protocol: Permission to acquire the fresh human blood used for this experiment was granted by the […] University Local Ethics Committee (No. 2023-2/32, 27 January 2023). First, 30 μL of fresh male human blood was suspended with 10 mL of autoclaved Tris saline buffer (TBS buffer, 10 mM Tris, 150 mM NaCl, pH 7.2) and centrifuged thrice for 5 min at 1500 rpm. […] Three replicates were performed for each peptide dose. A sample of 20% Triton-X 100/DMSO was used as a positive control. After incubation, the 96-well plate was centrifuged at 1500 rpm for 10 min. Absorbance was measured at 414 nm using a microplate reader (Gen5 Synergy HT BioTek). The % lysis of the peptide was calculated as follows:% lysis = OD414 - OD414 (blank)/OD414 (total lysis - blank) × 100

S. aureus ATCC 29213 [2] = assay: Resistance development by serial passages; type: cell-based, Staphylococcus aureus; conditions: for MIC: Staphylococcus aureus
[3] = test system: resistant Klebsiella pneumoniae (KP) strain; type: cell-based
3t3 cell line = type: cell-based, mouse; conditions: 24 h
Protocol: (§1) 3T3 and HaCaT cells were grown in DMEM consisting of 1% pen/strep and 10% FBS. A total of 5 × 10^4 cells were loaded into each well of a 96-well plate and incubated at 37 °C using a 5% CO2 incubator. All samples were measured in triplicate between 0.5–32 µg/mL concentrations and incubated at 37 °C for 24 h in a 5% CO2 incubator. Only cells and Mag-2 were used as negative and positive controls, respectively. After 24 h, cell cytotoxicity was evaluated using a cell proliferation kit (MTT, Roche, Basel, Switzerland) following the kit protocol and analyzed at 550 nm and 690 nm using a microplate reader (Gen5 Synergy HT BioTek). The concentration of peptides that killed 50% of the cells was determined as the IC50 in the cytotoxicity experiments.

proteinase K = target: T1, proteinase K (Parengyodontium album, UniProt P06873); assay: Stability toward enzymatic degradation (protease resistance assay); type: in vitro ADME; conditions: peptide 1 mg/mL in TBS (50 mM Tris, 150 mM NaCl, pH 7.6) with 10% DMSO; proteinase K 1 mg/mL (30 U/mg); 37 °C, overnight (also 10 min, 30 min); HPLC at 214 nm
T1 construct: purchased Qiagen
Protocol: Peptide solutions were prepared at a final concentration of 1 mg/mL in TBS buffer (50 mM Tris, 150 mM NaCl, pH 7.6) including 10% DMSO. The proteinase K solution was adjusted to 1 mg/mL (enzyme activity = 30 U/mg). The peptide solution was then incubated at 37 °C overnight in an orbital shaker. After incubation, the reaction was blocked by adding 1% TFA (100 µL) in water. Peptide solutions with/without the proteinase K enzyme were analyzed at 214 nm using HPLC with an analytic column (AdvanceBio Peptide Plus, 2.1 × 150 mm, 2.7 µm, LC column, Agilent Technologies, Santa Clara, CA, USA) following the linear gradient method (30 min in a range of 5–80% acetonitrile including 0.025% TFA). MIC experiments were repeated to measure biological activities after treating the peptides with proteinase K.

HaCaT cell line = type: cell-based, human; conditions: 24 h
Protocol: as §1

T1 sequence (P06873 106-384): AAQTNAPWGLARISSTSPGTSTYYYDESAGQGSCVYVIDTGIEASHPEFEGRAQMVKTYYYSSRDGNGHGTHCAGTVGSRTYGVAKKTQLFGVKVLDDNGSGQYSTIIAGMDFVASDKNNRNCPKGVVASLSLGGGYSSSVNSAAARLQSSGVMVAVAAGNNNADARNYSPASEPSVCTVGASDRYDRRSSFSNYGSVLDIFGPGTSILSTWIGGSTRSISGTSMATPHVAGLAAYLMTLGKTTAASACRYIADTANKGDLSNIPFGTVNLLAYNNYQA

Molecule	MIC C. albicans (C. albicans ATCC 10231)	MIC P. aeruginosa (P. aeruginosa ATCC 27853)	MIC E. coli (E. coli ATCC 25922)	MIC S. aureus (S. aureus ATCC 29213 [1])	further results
CC(C)C[C@@H](NC(=O)[C@H](N)CCCNC(=N)N)C(=O)N[C@H](CC(C)C)C(=O)N[C@H](CCCNC(=N)N)C(=O)N[C@H](CC(C)C)C(=O)N[C@H](CC(C)C)C(=O)N[C@H](CC(C)C)C(=O)N[C@H](CC(C)C)C(=O)N[C@H](CCCNC(=N)N)C(=O)N[C@H](CC(C)C)C(=O)N[C@H](CC(C)C)C(=O)N[C@H](CCCNC(=N)N)C(N)=O [D-TN1] (HELM PEPTIDE1{[dR].[dL].[dL].[dR].[dL].[dL].[dL].[dL].[dR].[dL].[dL].[dR].[am]}$$$$V2.0)	1 µg/mL (≈ 0.646 µM)	4 µg/mL (≈ 2.59 µM)	8 µg/mL (≈ 5.17 µM)	4 µg/mL (≈ 2.59 µM)	HC50 (human erythrocytes): 77.63 µg/mL
CC(C)C[C@@H](NC(=O)[C@@H](CC(C)C)NC(=O)[C@@H](CC(C)C)NC(=O)[C@@H](CCCNC(=N)N)NC(=O)[C@@H](CC(C)C)NC(=O)[C@@H](CC(C)C)NC(=O)[C@@H](CCCNC(=N)N)NC(=O)[C@@H](CC(C)C)NC(=O)[C@@H](CC(C)C)NC(=O)[C@H](N)CCCNC(=N)N)C(N)=O [D-TN3] (HELM PEPTIDE1{[dR].[dL].[dL].[dR].[dL].[dL].[dR].[dL].[dL].[dL].[am]}$$$$V2.0)	0.25 µg/mL (≈ 0.196 µM)	4 µg/mL (≈ 3.13 µM)	2 µg/mL (≈ 1.57 µM)	8 µg/mL (≈ 6.26 µM)	HC50 (human erythrocytes): 32.63 µg/mL
CNC(C)C1CCC(N)C(OC2C(N)CC(N)C(OC3OCC(C)(O)C(NC)C3O)C2O)O1 (centres unmarked) [gentamicin]	–	–	–	–	MIC value in the sixth passage (S. aureus ATCC 29213 [2]; S. aureus ATCC 29213, continuous serial passaging): 8 µg/mL (≈ 16.8 µM); MIC (S. aureus ATCC 29213 [2]; ATCC29213, read-out: MIC value in the sixth passage): 8 µg/mL (≈ 16.8 µM); MIC (S. aureus ATCC 29213 [2]; ATCC29213, read-out: initial MIC value): 1 µg/mL (≈ 2.09 µM)
Polymyxin B [reference compound]	–	–	–	–	MIC KP1 ([3]; Table S2, strain KP1): 16 µg/mL; MIC KP2 ([3]; Table S2, strain KP2): 2 µg/mL; MIC KP8 ([3]; Table S2, strain KP8): 64 µg/mL; MIC KP9 ([3]; Table S2, strain KP9): 2 µg/mL; MIC KP13 ([3]; Table S2, strain KP13): 16 µg/mL; MIC KP22 ([3]; Table S2, strain KP22): 8 µg/mL; MIC KP28 ([3]; Table S2, strain KP28): 16 µg/mL; MIC KP29 ([3]; Table S2, strain KP29): 16 µg/mL; MIC KP35 ([3]; Table S2, strain KP35): 8 µg/mL; MIC KP40 ([3]; Table S2, strain KP40): 4 µg/mL; MIC KP41 ([3]; Table S2, strain KP41): 4 µg/mL; MIC KP42 ([3]; Table S2, strain KP42): 8 µg/mL; MIC KP46 ([3]; Table S2, strain KP46): 16 µg/mL; MIC KP52 ([3]; Table S2, strain KP52): 8 µg/mL
RAARAAARAAR-NH2 [TN6A5]	128 µg/mL	>1024 µg/mL	1024 µg/mL	>1024 µg/mL	–
RALRALARALR-NH2 [TN6A1]	256 µg/mL	256 µg/mL	128 µg/mL	128 µg/mL	–
RIIRIIIRIIR-NH2 [TN6I1]	128 µg/mL	128 µg/mL	32 µg/mL	16 µg/mL	–
RILRILIRLIR-NH2 [TN6I2]	128 µg/mL	32 µg/mL	16 µg/mL	2 µg/mL	–
RLLRLLLLRLLR-NH2 [TN1]	0.5 µg/mL	32 µg/mL	2 µg/mL	4 µg/mL	–
RLLRLLLRLLR [D/L-TN6, TN6 template, arginine in L-form, leucine in L- and D-forms]	–	–	–	–	MIC C. albicans (C. albicans ATCC 10231; CLSI M27-A3): 8 µg/mL
RLLRLLLRLLR-NH2 [TN6]	0.5 µg/mL	8 µg/mL	2 µg/mL	2 µg/mL	IC50 3t3 (3t3 cell line): 29.80 µg/mL; Stability toward proteinase K (HPLC) (proteinase K): fragmented into different-sized molecules; also recorded: disappeared; IC50 HaCaT (HaCaT cell line): 15.32 µg/mL
RLLRLLRLLL [TN3-carboxy]	1 µg/mL	32 µg/mL	4 µg/mL	16 µg/mL	–
RLLRLLRLLL-NH2 [TN3-amide]	2 µg/mL	4 µg/mL	8 µg/mL	8 µg/mL	–
RLLRLLRLLLL-NH2 [TN8]	0.5 µg/mL	256 µg/mL	4 µg/mL	8 µg/mL	–
RLLRLLRLLLRLLRLLR-NH2 [TN6(2)]	32 µg/mL	64 µg/mL	16 µg/mL	16 µg/mL	–
RRLLRLLLRLLR-NH2 [RTN6]	4 µg/mL	8 µg/mL	2 µg/mL	1 µg/mL	–
RVLRVLRVLL-NH2 [TN3V1]	4 µg/mL	32 µg/mL	16 µg/mL	8 µg/mL	–
RVVRVVRVVV-NH2 [TN3V9]	128 µg/mL	256 µg/mL	64 µg/mL	16 µg/mL	–
